Consider 2 molecules from patent EP0295827A2, “Use of 24,25-dihydroxy-cholecalciferol in mending bone fractures” (priority 1987, dated 1988).

A short description of series [1]: Acute toxicity, single oral administration. Conditions: mouse, in vivo, ICR male mice, read-out: LD₅₀ value. On the procedure:
24,25-(OH)₂-D₃ in ethanol was dissolved in a triglyceride ester of a middle fatty acid so as to have an ethanol concentration of 2 %. The thus-prepared solution was orally administered to 10 ICR male mice (weight: 25 ± 3g). The dosage of 24,25-(OH)₂-D₃ was 100 mg/kg. […] When they were subjected to the biochemical blood test, anatomical examination and pathological histology after they were killed, there was no difference between the treated mice and a controlled group of mice to which only a triglyceride ester of a middle fatty acid containing 2% ethanol had been administered. Since the LD₅₀ value of the oral administration of 24,25-(OH)₂-D₃ was not less than 100 mg/kg, 24,25-(OH)₂-D₃ can be said to be very safe.

The subject of series [2] is rabbits suffering fracture. As to the kind of experiment: Fibula fracture model: strength test (bending test). It counts as in vivo, Japanese white house rabbits. Conditions: 100 µg/kg oral, average value ± standard deviation. The source says: The right fibulae of mature house rabbits (Japanese white house rabbits having a weight of about 3 kg) were broken at the central portions under anesthetic with a dental hand drill. Each of the house rabbits was kept in a separate cage and was allowed to take an ordinary solid food (CR-1, produced by Nippon Clare Corp.) and city water freely. 24R,25-(OH)₂-D₃ and 24S,25-(OH)₂-D₃ were dispersed in an aqueous 0.5% CMC solution and orally administered to the house rabbits through a rubber catheter. The experimental groups were as follows:
The respective medicines or aqueous 0.5% CMC solution was administered to these house rabbits for 3 weeks or 6 weeks after the bones had been broken. Thereafter, the house rabbits were killed and the fibulae were taken out for X-ray inspection and a strength test (bending test by DDV-VMF produced by Toyo Baldwin Co., Ltd.).

Molecules are shown by their SMILES.

In the case of `C=C1CCC(O)CC1=CC=C1CCCC2(C)C1CCC2C(C)CCC(O)C(C)(C)O` (stereo not drawn) [24,25-(OH)₂-D₃, 24,25-dihydroxycholecalciferol], in series [1], the LD50 at 336 h was at least 100 mg/kg.
On to `C=C1CC[C@H](O)C/C1=C/C=C1\CCC[C@]2(C)[C@@H]([C@H](C)CC[C@H](O)C(C)(C)O)CC[C@@H]12` [24S,25-(OH)₂-D₃], for which the Bending strength is given as 15 N/mm in series [2] (3 weeks after) and 81 ± 37 N/mm in series [2] (6 weeks after).
